Common to all, as to assay type: biochemical
One assay deals with T1, hCES1A (Homo sapiens, UniProt P23141).
T1 construct: tissue Bioreclamation IVT lot No. X008067; host or cells: pooled human liver microsomes from 50 donors
T1 sequence (P23141 18-567): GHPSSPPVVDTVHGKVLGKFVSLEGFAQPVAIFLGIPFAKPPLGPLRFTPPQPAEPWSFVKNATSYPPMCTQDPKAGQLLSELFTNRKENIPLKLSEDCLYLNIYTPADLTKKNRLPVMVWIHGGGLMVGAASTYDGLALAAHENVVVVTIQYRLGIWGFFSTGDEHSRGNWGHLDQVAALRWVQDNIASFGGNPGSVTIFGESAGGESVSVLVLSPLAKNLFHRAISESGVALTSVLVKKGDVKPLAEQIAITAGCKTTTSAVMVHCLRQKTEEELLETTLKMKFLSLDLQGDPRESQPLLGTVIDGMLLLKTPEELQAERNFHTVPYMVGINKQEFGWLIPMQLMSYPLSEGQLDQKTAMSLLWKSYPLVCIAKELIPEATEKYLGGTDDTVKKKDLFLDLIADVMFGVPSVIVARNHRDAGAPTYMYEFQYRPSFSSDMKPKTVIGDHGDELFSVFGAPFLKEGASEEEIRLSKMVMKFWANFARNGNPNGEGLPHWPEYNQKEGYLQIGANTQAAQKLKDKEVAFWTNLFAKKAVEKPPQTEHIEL
As to the kind of experiment: Inhibition of hCES1A-mediated NLMe hydrolysis in human liver microsomes. As to conditions: for Inhibition mode hCES1A / Ki / IC50: NLMe substrate, HLM; for Ki: Lineweaver–Burk second plot; for IC50: mean ± SD (n = 3), read-out: IC50 (µM) hCES1A; for Reversibility of hCES1A inhibition: dose-response curves not affected by pre-incubation times. On the procedure:
N-Alkylated D-luciferin methyl ester (NLMe), a Specific probe for hCES1A[45], was used for assessing the inhibitory effects for triterpenoids, and BNPP was used as a positive inhibitor of hCES1A. […] Then NLMe (2 µL, 0.15 mM) was added to start the reaction. After shaking the reaction in 37 °C incubator for 10 min, 50 µL of reaction solution was removed and mixed with LDR (50 µL) to terminate the reaction. A multi-mode microplate reader was used to detect the luminescence signal of NL (the hydrolysed metabolite of NLMe). The luminescence product of NL was measured at 580 nm (gain: 140). The final volume ratio of DMSO was less than 1% (V/V).
(§1) Subsequently, various concentrations of substrates (selected according to Km) and different concentrations of inhibitors were used to determine the corresponding reaction rate, and the second slope graph of the Lineweaver–Burk diagram was used as a function of the inhibitor to calculate the corresponding inhibition constant (Ki) value. All kinetic data were fitted by the following kinetic equations (a–c), for competitive (a), non-competitive (b) and mixed inhibition (c): (a) V=(VmaxS)/[Km(1+I/Ki)+S] (b) V=(VmaxS)/[(Km+S)×(1+I/Ki)] (c) V=(VmaxS)/[(Km+S)×(1+I/αKi)] where V is the hydrolytic velocity of the reaction, Vmax is the maximum velocity. S and I are substrate (4-MUO, NLMe) and inhibitor (compound 39/41) concentrations, respectively. Ki is the inhibition constant of the tested inhibitor against the target PL and hCES1A; Km is the Michaelis constant (the substrate concentration at half of the Vmax).
All measurements were made in triplicate and the data obtained in the experiment were shown as mean ± SD. The IC50 and Ki values of the compounds with strong inhibitory effect were evaluated by nonlinear regression with graphpad prism 7.0 software (GraphPad Software, Inc., La Jolla, CA).
A general note: Liver microsomes are vesicles of endoplasmic reticulum, rich in cytochrome P450 enzymes.

Another assay deals with T2, Pancreatic lipase (PL) (Sus scrofa, UniProt P00591).
T2 construct: purchased Sigma Aldrich type II, Lot.SLBN9099V
T2 sequence (P00591 1-450): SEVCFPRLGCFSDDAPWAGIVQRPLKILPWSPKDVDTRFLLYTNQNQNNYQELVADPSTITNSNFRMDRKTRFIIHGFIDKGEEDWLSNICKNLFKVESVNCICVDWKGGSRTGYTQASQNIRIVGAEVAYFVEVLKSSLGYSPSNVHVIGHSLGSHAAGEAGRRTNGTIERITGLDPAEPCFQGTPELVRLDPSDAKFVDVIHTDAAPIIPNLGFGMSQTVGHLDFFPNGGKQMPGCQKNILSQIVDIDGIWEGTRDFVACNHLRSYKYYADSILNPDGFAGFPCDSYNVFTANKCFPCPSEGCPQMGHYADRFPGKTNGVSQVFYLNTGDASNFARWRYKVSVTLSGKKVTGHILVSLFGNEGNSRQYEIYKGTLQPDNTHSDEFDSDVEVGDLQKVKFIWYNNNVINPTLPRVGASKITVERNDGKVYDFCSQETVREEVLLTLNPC
As to the kind of experiment: Inhibition of PL-mediated 4-MUO hydrolysis. As to conditions: for Inhibition mode PL / Ki / IC50: 4-MUO substrate; for Ki: Lineweaver–Burk second plot; for IC50: mean ± SD (n = 3); for Reversibility of PL inhibition: dose-response curves not affected by pre-incubation times. As to the method:
In addition, the background fluorescence in the absence of an enzyme source (PL) (add the same amount of citrate-Na2HPO4 buffer) was measured. […] Then start the reaction by adding 2 µL of 4-MUO probe (3 µM, final concentration). The fluorescence signal of 4-MU (hydrolytic metabolite) was detected by multi-mode microplate reader (SpectraMax M4, Molecular Devices, Urstein, Austria) with continuous oscillation for 20 min and recorded and analysed at 60 s intervals. The excitation wavelength and emission wavelength of 4-MU were set at 340 nm and 460 nm, respectively, and the gain value was 500.
as §1
All measurements were made in triplicate and the data obtained in the experiment were shown as mean ± SD.

Assay [1] addresses dipeptidyl peptidase-IV (DPP-IV) (Homo sapiens, UniProt P27487). The experiment in a line: Inhibition of DPP-IV-mediated GP-BAN hydrolysis. The settings on record: substrate: GP-BAN. As to the method:
The details for DPP-IV inhibition has been reported previously[49]^,[50]. The fluorescent signal of the hydrolytic product (BAN) was measured by a fluorescence microplate reader at an excitation wavelength of 430 nm, an emission wavelength of 535 nm (gain = 500).

Molecules are shown by their SMILES. Some results are limits rather than exact numbers.

The term Ki denotes the equilibrium dissociation constant of an inhibitor or competing ligand from its target. As usually defined, the IC50 is the concentration that gives 50% inhibition.

dipeptidyl peptidase-IV (DPP-IV), sequence (P27487 whole entry): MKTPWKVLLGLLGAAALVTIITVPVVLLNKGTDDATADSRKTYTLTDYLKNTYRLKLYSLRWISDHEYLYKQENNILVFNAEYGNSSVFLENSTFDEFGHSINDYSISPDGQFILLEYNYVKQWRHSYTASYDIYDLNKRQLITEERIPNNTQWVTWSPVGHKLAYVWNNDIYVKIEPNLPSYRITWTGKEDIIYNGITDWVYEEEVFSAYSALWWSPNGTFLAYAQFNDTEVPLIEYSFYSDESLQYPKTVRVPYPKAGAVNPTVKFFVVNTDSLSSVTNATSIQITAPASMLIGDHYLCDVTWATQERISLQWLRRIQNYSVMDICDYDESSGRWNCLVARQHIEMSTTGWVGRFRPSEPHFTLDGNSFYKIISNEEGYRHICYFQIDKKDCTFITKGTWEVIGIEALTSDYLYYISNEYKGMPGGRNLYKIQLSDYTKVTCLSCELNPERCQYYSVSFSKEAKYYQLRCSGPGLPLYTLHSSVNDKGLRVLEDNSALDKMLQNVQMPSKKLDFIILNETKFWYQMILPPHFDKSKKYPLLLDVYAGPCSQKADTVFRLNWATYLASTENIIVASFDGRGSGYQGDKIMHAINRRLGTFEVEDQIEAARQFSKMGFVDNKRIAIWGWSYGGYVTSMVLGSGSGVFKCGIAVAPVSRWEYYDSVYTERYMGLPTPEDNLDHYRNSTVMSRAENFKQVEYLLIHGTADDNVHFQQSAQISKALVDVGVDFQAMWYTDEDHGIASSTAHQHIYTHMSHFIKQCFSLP

As to `CC1(C)CCC2(C(=O)O)CCC3(C)C(=CCC4C5(C)C=C(O)C(=O)C(C)(C)C5CCC43C)C2C1` (stereo not drawn) [Compound 39], at hCES1A, the “Inhibition mode hCES1A” value is reported as “Competitive”, affinity was put at a Ki of 0.043 µM, the IC50 is 0.055 ± 0.006 µM and the “Reversibility of hCES1A inhibition” value is listed as “reversible inhibitors”. Also, on Pancreatic lipase (PL), the “Inhibition mode PL” value is reported as “Mixed”, the Ki was determined as 1.45 µM, half-maximal inhibition (IC50) required 2.13 ± 0.19 µM and the “Reversibility of PL inhibition” value is reported as “reversible inhibitors”. The same molecule displayed an IC50 in assay [1] of more than 100 µM.
`CC(=O)OC1CCC2(C)C(CCC3(C)C2CC=C2C4C(C)C(C)CCC4(C(=O)O)CCC23C)C1(C)C` (stereo not drawn) [Compound 41]: at hCES1A, the “Inhibition mode hCES1A” value is on record as “Competitive”, the Ki was found to be 0.019 µM, the half-inhibitory concentration (IC50) was determined as 0.014 ± 0.002 µM and the “Reversibility of hCES1A inhibition” value is on record as “reversible inhibitors”. For the same molecule, at Pancreatic lipase (PL), the “Inhibition mode PL” value was “Mixed”, the Ki is 0.58 µM, the IC50 is 0.75 ± 0.12 µM and the “Reversibility of PL inhibition” value is reported as “reversible inhibitors”. In assay [1], the IC50 was more than 100 µM.

These data come from PMC8812735, “Discovery of triterpenoids as potent dual inhibitors of pancreatic lipase and human carboxylesterase 1” (Journal of Enzyme Inhibition and Medicinal Chemistry, 2022).
